# Assay results taken from patent publication US10278942B2 (PELOTON THERAPEUTICS, INC., priority 2015, dated 2019).
# Biological target: T1, HIF-2α HIS TAG-PASB Domain (Homo sapiens, UniProt Q99814)
# T1 construct: 100 nM HIF-2α HIS TAG-PASB Domain
# Assay: HIF-2α Scintillation Proximity Assay (SPA)
# Assay type: binding
# Conditions: Scintillation Proximity Assay IC50 (nM)
# Method: The total assay volume was about 100 μL in the following configuration: 2 μL compound in 100% DMSO, 88 μL buffer with protein and probe and 10 μL of SPA beads. […] The percent inhibition was determined and IC50 values were calculated using the Dotmatics system based on the following equation: % inhibition=[(high control−sample)/(high control−low control)]×100.
# T1 sequence (Q99814 240-350 limits assumed): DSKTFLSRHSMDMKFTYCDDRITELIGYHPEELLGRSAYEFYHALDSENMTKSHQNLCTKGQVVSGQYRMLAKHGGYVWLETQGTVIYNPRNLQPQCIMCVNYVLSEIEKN
row,SMILES,IC50
1,N#Cc1c(Oc2cc(F)cc(Cl)c2)ccc2c1C(O)C(F)(F)S2(=O)=O (centres unmarked) [Compound 356],< 50 nM
2,O=S1(=O)c2ccc(Oc3cncc(Cl)c3)c(C(F)F)c2C(O)C1(F)F (centres unmarked) [Compound 381],50 to 249 nM
3,N#Cc1cncc(Oc2ccc3c(c2C(F)F)C(O)C(F)(F)S3(=O)=O)c1 (centres unmarked) [Compound 383],50 to 249 nM
4,O=S1(=O)c2ccc(Oc3cc(F)cc(Cl)c3)c(C(F)F)c2C(O)C1(F)F (centres unmarked) [Compound 364],< 50 nM

# Same assay, conditions: read-out: Scintillation Proximity Assay IC50
row,IC50,SMILES
1,> 1000 nM,O=S(=O)(c1ccc(Cn2ccnn2)c2c1[C@H](O)C(F)(F)C2)C(F)(F)F [Compound 536]
2,> 1000 nM,O=S(=O)(c1ccc(-c2ccn[nH]2)c2c1[C@H](O)C(F)(F)C2)C(F)(F)F [Compound 561]
3,250 to 1000 nM,CS(=O)(=O)c1ccc(Oc2cc(F)cc(C#N)c2)c2c1[C@H](N)C(F)(F)[C@@H]2F [Compound 346]
4,> 1000 nM,CS(=O)(=O)N1CCC(Oc2ccc(S(=O)(=O)C(F)(F)F)c3c2CC(F)(F)C3O)C1 (centres unmarked) [Compound 630]
5,> 1000 nM,O=C(O)COc1ccc(S(=O)(=O)C(F)(F)F)c2c1CC(F)(F)C2O (centres unmarked) [Compound 633]
6,> 1000 nM,O=C1c2c(ccc(Oc3cc(F)cc(Cl)c3)c2Br)S(=O)(=O)C12CC2 [Compound 404]
7,> 1000 nM,CS(=O)(=O)c1ccc(OC2CC2)c2c1[C@H](O)C(F)(F)[C@@H]2F [Compound 773]
8,> 1000 nM,CC(Oc1ccc(S(=O)(=O)C(F)(F)F)c2c1CC(F)(F)C2O)C(N)=O (centres unmarked) [Compound 649]
9,> 1000 nM,CC1(O)c2c(S(=O)(=O)C(F)F)ccc(Oc3cc(F)cc(C#N)c3)c2CC1(F)F (centres unmarked) [Compound 13]
10,< 50 nM,N#Cc1cc(F)cc(Oc2ccc3c(c2C(F)F)C(N)C(F)(F)S3(=O)=O)c1 (centres unmarked) [Compound 372]
11,> 1000 nM,O=C1c2c(C(F)(F)F)ccc(OCC(F)F)c2CC1F (centres unmarked) [Compound 694]
12,> 1000 nM,C=CC1(O)c2c(ccc(Oc3cc(F)cc(C#N)c3)c2C#N)S(=O)(=O)C1(F)F (centres unmarked) [Compound 460]
13,> 1000 nM,OC1CCc2c(OCC(F)F)ccc(C(F)(F)F)c21 (centres unmarked) [Compound 662]
14,> 1000 nM,CC1(C)C[C@@H](O)C[C@H](c2ccc(S(=O)(=O)C(F)(F)F)c3c2CC(F)(F)[C@H]3O)C1 [Compound 552]
15,> 1000 nM,CS(=O)(=O)c1ccc(Oc2cncc(Br)c2)c2c1[C@H](O)[C@H](F)C2 [Compound 326]
16,< 50 nM,CS(=O)(=O)c1ccc(Oc2cncc(Br)c2)c2c1[C@H](O)[C@H](F)[C@@H]2F [Compound 328]
17,> 1000 nM,NC1CS(=O)(=O)c2ccc(Oc3cc(F)cc(F)c3)c(C(F)F)c21 (centres unmarked) [Compound 367]
18,> 1000 nM,O=C1CC[C@H](Oc2ccc(S(=O)(=O)C(F)(F)F)c3c2CC(F)(F)[C@H]3O)CN1 [Compound 719]
19,> 1000 nM,O=S(=O)(c1ccc(OCCCO)c2c1C(O)CC2)C(F)(F)F (centres unmarked) [Compound 611]
20,> 1000 nM,CN(C)C(=O)COc1ccc(S(=O)(=O)C(F)(F)F)c2c1CC(F)(F)C2O (centres unmarked) [Compound 632]
21,> 1000 nM,OC1c2c(I)cc(I)c(OCC(F)F)c2CC1F (centres unmarked) [Compound 667]
22,> 1000 nM,N#Cc1cc(F)cc(Oc2ccc3c(c2Br)[C@@H](O)CS3(=O)=O)c1 [Compound 415]
23,> 1000 nM,O=S(=O)(c1ccc(Oc2ccc3[nH]ncc3c2)c2c1C(O)C(F)(F)C2)C(F)(F)F (centres unmarked) [Compound 238]
24,> 1000 nM,OC1c2c(Br)ccc(OCC(F)F)c2CC1(F)F (centres unmarked) [Compound 687]
25,> 1000 nM,CCS(=O)(=O)c1ccc(Oc2cc(F)cc(C#N)c2)c2c1C(O)CC2 (centres unmarked) [Compound 205]
26,> 1000 nM,N#Cc1ccc(F)c2c1CC(F)(F)C2O (centres unmarked) [Compound 519]
27,> 1000 nM,"O=S(=O)(c1ccc(N2CCOCC2)c2c1[C@H](O)C(F)(F)C2)C(F)(F)F [Compound 490, (S)-2,2-difluoro-4-morpholino-7-((trifluoromethyl)sulfonyl)-2,3-dihydro-1H-inden-1-ol]"
28,> 1000 nM,O=S(=O)(c1ccc(OC2CNC2)c2c1[C@H](O)C(F)(F)C2)C(F)(F)F [Compound 792]

row,IC50,SMILES
1,> 1000 nM,O=S(=O)(c1ccc(Oc2cc(Cl)ccc2F)c(Br)c1)C(F)(F)F [Compound 170]
2,< 50 nM,N#Cc1cncc(Oc2ccc(S(=O)(=O)CF)c3c2[C@@H](F)C(F)(F)[C@H]3O)c1 [Compound 344]
3,> 1000 nM,N#Cc1ccc(OCC(F)F)c2c1[C@H](O)C(F)(F)C2 [Compound 688]
4,> 1000 nM,CC1CC(Oc2ccc(S(=O)(=O)C(F)(F)F)c3c2CCC3O)CCO1 (centres unmarked) [Compound 624]
5,> 1000 nM,N#Cc1cc(F)cc(Oc2ccc3c(c2C(F)F)[C@H](N)C(F)(F)S3(=O)=O)c1 [Compound 384]
6,> 1000 nM,CC(C)(C)OC(=O)NCc1c(S(=O)(=O)C(F)F)ccc(Oc2cc(F)cc(Cl)c2)c1Br [Compound 83]
7,> 1000 nM,N#Cc1cc(F)cc(Oc2ccc(S(=O)(=O)C(F)F)c(C#N)c2Br)c1 [Compound 77]
8,> 1000 nM,N=S1(=O)CC(O)c2c1ccc(Oc1cc(F)cc(F)c1)c2C(F)F (centres unmarked) [Compound 396]
9,> 1000 nM,O=S(=O)(c1ccc(C2CC2)c2c1C(O)CC2)C(F)(F)F (centres unmarked) [Compound 512]
10,< 50 nM,N#Cc1cc(F)cc(Oc2ccc(S(=O)(=O)C(F)(F)F)c(Cl)c2C#N)c1 [Compound 29]
11,> 1000 nM,"O=S(=O)(c1ccc(NC2CCOCC2)c2c1[C@H](O)CC2)C(F)F [Compound 494, (1R)-7-(difluoromethylsulfonyl)-4-(tetrahydropyran-4-ylamino)indan-1-ol]"
12,> 1000 nM,O=S(=O)(c1ccc(Oc2cc(F)cc(Cl)c2)c(CCCO)c1)C(F)(F)F [Compound 126]
13,> 1000 nM,CCOc1ccc(C(F)(F)F)c2c1CC[C@H]2O [Compound 673]
14,> 1000 nM,CS(=O)(=O)c1ccc(Oc2cncc(C#N)c2)c2c1[C@H](O)C(F)(F)[C@H]2F [Compound 343]
15,> 1000 nM,N#Cc1c(Oc2cc(F)cc(Cl)c2)ccc(S(=O)(=O)C(F)(F)F)c1Cl [Compound 28]
16,50 to 249 nM,N#Cc1c(Oc2cc(F)cc(Cl)c2)ccc2c1C(O)CS2(=O)=O (centres unmarked) [Compound 353]
17,> 1000 nM,N#Cc1cc(Oc2ccc(S(=O)(=O)C(F)F)c3c2CC(F)(F)C3=O)ccc1F [Compound 199]
18,> 1000 nM,N#Cc1cc(Oc2ccc(S(=O)(=O)C(F)(F)F)c3c2CCC3O)ccc1F (centres unmarked) [Compound 216]
19,50 to 249 nM,N#Cc1cc(F)cc(Oc2ccc(S(=O)(=O)C(F)(F)F)c3c2CC(F)C3N)c1 (centres unmarked) [Compound 265]
20,> 1000 nM,CNS(=O)(=O)c1ccc(Oc2cc(F)cc(F)c2)c2c1C(O)CC2 (centres unmarked) [Compound 211]
21,> 1000 nM,N#Cc1cc(F)cc(Oc2ccc(S(=N)(=O)C(F)(F)F)cc2C#N)c1 (centres unmarked) [Compound 73]
22,> 1000 nM,CS(=O)(=O)c1ccc(Nc2cc(F)cc(C#N)c2)c2c1C(O)CC2 (centres unmarked) [Compound 498]
23,> 1000 nM,N#Cc1cncc(Oc2ccc(S(=O)(=O)CF)c3c2[C@H](F)C(F)(F)[C@H]3O)c1 [Compound 345]
24,> 1000 nM,COc1ccc(S(C)(=O)=O)c2c1CC(F)(F)[C@H]2O [Compound 777]
25,> 1000 nM,CS(=O)(=O)c1ccc(O[C@H]2C[C@H](O)C2)c2c1[C@H](O)C(F)(F)[C@@H]2F [Compound 738]
26,> 1000 nM,O=C1c2c(ccc(Oc3cc(F)cc(Cl)c3)c2Br)S(=O)(=O)C1(F)F [Compound 354]
27,> 1000 nM,C=CS(=O)(=O)c1ccc(Oc2cc(F)cc(Cl)c2)c(Br)c1 [Compound 130]
